Assay results from patent publication US5023239A, “Sialosyl cholesterol, process for producing the same, and neuropathy remedy comprising the same” (MECT Corporation, priority 1986, dated 1991).

Key:
[1] = system: Neuroblastoma Cell, Neuro 2a Strain; experiment: Effect on proliferation / neurite propagation of neuroblastoma cell, Neuro 2a strain; assay type: cell-based, mouse; conditions: for activity (in words): 24 hours cultivation; for minimal effective concentration: 48 hours after addition; for growth / propagation of neurites (in words): Neuro 2a culture; for activity relative to GMl (times as high): vs GMl; for activity relative to GMl (times as high) / activity relative to GQlb (times as high): from minimal effective concentrations at 48 hours, molecular weights considered; for activity relative to GQlb (times as high): vs GQlb
Protocol: Experiments for confirming the activity of the present compound for promoting propagation of neurites will be explained below.
Effect On Proliferation of Neuroblastoma Cell, Neuro 2a Strain
Neuro 2a was floated on culture medium consisting of 90% of Dulbecco's Modified Eagle's Midium, and 10% of fetal calf serum (FCS), and containing 100 units/ml of penicillin G and 100 micro g/ml of streptomycin sulfate, and then cultivated at 37° C. in a carbon dioxide incubator containing air into which 5% of carbon dioxide was incorporated. The vessel as used was a polystyrene tray having a diameter of 60 mm. 1 to 2×10^4 of the neuroblastoma cells were implanted in each tray and cultivated for 48 hours. The FCS-containing culture was removed from the resultant cell culture. […] When 24 and 48 hours had passed after the addition of these medicines, the number of the living cells increased in the culture, the number of the neurites increased, and the length of the neurites were measured. The experiment was conducted on three trays with respect to each concentration. The resultant data were expressed by average value+standard error (S.E).

ddy male mice = experiment: Acute toxicity test, intravenous injection; assay type: in vivo, mouse; conditions: ddy male mice of 45 weeks age
Protocol: Acute toxicity test was conducted by intravenously injecting the compounds into ddy male mice of 45 weeks age.

## CC(=O)NC1C(O)CC(OC2CCC3(C)C(=CCC4C3CCC3(C)C(C(C)CCCC(C)C)CCC43)C2)(C(=O)O)OC1C(O)C(O)CO [Compound (4), sodium 5-acetoamide-2-O-(5-cholesten-3-yl)-3,5-dideoxy-alpha-D-glycero-D-galacto-2-nonulopyranosonate]
[1]; 10 ng/ml
  activity (in words): indicated activity
[1]; 24 hrs, 10 ng/ml
  Length of neurite ± S.E.: 92.4 ± 5.31 μm/cell
  Number of neurite propagated cells: 131
  Number of neurites ± S.E.: 1.2 ± 0.04 number/cell
  Rate of neurite propagation (%): 31.5%
  Total number of cells: 416
[1]; 24 hrs, 100 ng/ml
  Length of neurite ± S.E.: 96.7 ± 4.12 μm/cell
  Number of neurite propagated cells: 177
  Number of neurites ± S.E.: 1.2 ± 0.03 number/cell
  Rate of neurite propagation (%): 41.5%
  Total number of cells: 427
[1]; 24 hrs, 1 μg/ml
  Length of neurite ± S.E.: 130.4 ± 6.12 μm/cell
  Number of neurite propagated cells: 190
  Number of neurites ± S.E.: 1.2 ± 0.03 number/cell
  Rate of neurite propagation (%): 50.9%
  Total number of cells: 373
[1]
  minimal effective concentration: 10 ng/mL
  growth / propagation of neurites (in words): strong activity for the propagation of the neurites
  activity relative to GMl (times as high): 420 times
  activity relative to GQlb (times as high): 270 times
[1]; 48 hrs, 10 ng/ml
  Length of neurite ± S.E.: 121.9 ± 5.18 μm/cell
  Number of neurite propagated cells: 219
  Number of neurites ± S.E.: 1.2 ± 0.03 number/cell
  Rate of neurite propagation (%): 46.9%
  Total number of cells: 467
[1]; 48 hrs, 100 ng/ml
  Length of neurite ± S.E.: 126.0 ± 6.10 μm/cell
  Number of neurite propagated cells: 193
  Number of neurites ± S.E.: 1.2 ± 0.04 number/cell
  Rate of neurite propagation (%): 47.8%
  Total number of cells: 404
[1]; 48 hrs, 1 μg/ml
  Length of neurite ± S.E.: 156.3 ± 8.32 μm/cell
  Number of neurite propagated cells: 182
  Number of neurites ± S.E.: 1.2 ± 0.04 number/cell
  Rate of neurite propagation (%): 49.3%
  Total number of cells: 369
Ddy male mice
  LD50: 93 mg/kg

## CC(=O)NC1C(O)CC(OC2CCC3(C)C(=CCC4C3CCC3(C)C(C(C)CCCC(C)C)CCC43)C2)(C(=O)O)OC1C(O)C(O)CO [Compound (5), sodium 5-acetoamide-2-O-(5-cholesten-3-beta-yl)-3,5-dideoxy-beta-D-glycero-D-galacto-2-nonulopyranosonate]
[1]; 10 ng/ml
  activity (in words): indicated activity
[1]; 24 hrs, 10 ng/ml
  Length of neurite ± S.E.: 89.4 ± 4.23 μm/cell
  Number of neurite propagated cells: 124
  Number of neurites ± S.E.: 1.3 ± 0.05 number/cell
  Rate of neurite propagation (%): 34.3%
  Total number of cells: 361
[1]; 24 hrs, 100 ng/ml
  Length of neurite ± S.E.: 116.4 ± 5.59 μm/cell
  Number of neurite propagated cells: 156
  Number of neurites ± S.E.: 1.2 ± 0.03 number/cell
  Rate of neurite propagation (%): 40.6%
  Total number of cells: 384
[1]; 24 hrs, 1 μg/ml
  Length of neurite ± S.E.: 130.8 ± 5.16 μm/cell
  Number of neurite propagated cells: 213
  Number of neurites ± S.E.: 1.2 ± 0.04 number/cell
  Rate of neurite propagation (%): 53.8%
  Total number of cells: 396
[1]
  minimal effective concentration: 100 ng/mL
  growth / propagation of neurites (in words): strong activity for the propagation of the neurites
  activity relative to GMl (times as high): 42 times
  activity relative to GQlb (times as high): 27 times
[1]; 48 hrs, 10 ng/ml
  Length of neurite ± S.E.: 110.6 ± 4.93 μm/cell
  Number of neurite propagated cells: 226
  Number of neurites ± S.E.: 1.2 ± 0.04 number/cell
  Rate of neurite propagation (%): 47.9%
  Total number of cells: 472
[1]; 48 hrs, 100 ng/ml
  Length of neurite ± S.E.: 135.1 ± 6.23 μm/cell
  Number of neurite propagated cells: 212
  Number of neurites ± S.E.: 1.3 ± 0.04 number/cell
  Rate of neurite propagation (%): 50.2%
  Total number of cells: 422
[1]; 48 hrs, 1 μg/ml
  Length of neurite ± S.E.: 138.9 ± 5.39 μm/cell
  Number of neurite propagated cells: 252
  Number of neurites ± S.E.: 1.2 ± 0.03 number/cell
  Rate of neurite propagation (%): 55.5%
  Total number of cells: 454
Ddy male mice
  LD50: 291 mg/kg

## <NAcNeu (alpha 2-8) NAcNeu (alpha 2-3)>Gal (beta 1-3) GalNAc (beta 1-4)- NAcNeu-(alpha 2-8) <NAcNeu- (alpha 2-3)>-Gal (beta 1-4) Glc (beta 1-1)-Ceramide [GQlb]
[1]
  activity (in words): do not provide any activity
  minimal effective concentration: 10 micro g/ml
[1]; 24 hrs, 10 ng/ml
  Length of neurite ± S.E.: 88.5 ± 5.00 μm/cell
  Number of neurite propagated cells: 174
  Number of neurites ± S.E.: 1.3 ± 0.05 number/cell
  Rate of neurite propagation (%): 51.8%
  Total number of cells: 336
[1]; 24 hrs, 100 ng/ml
  Length of neurite ± S.E.: 86.0 ± 4.72 μm/cell
  Number of neurite propagated cells: 159
  Number of neurites ± S.E.: 1.3 ± 0.04 number/cell
  Rate of neurite propagation (%): 48.0%
  Total number of cells: 331
[1]; 24 hrs, 1 μg/ml
  Length of neurite ± S.E.: 97.6 ± 4.95 μm/cell
  Number of neurite propagated cells: 157
  Number of neurites ± S.E.: 1.4 ± 0.05 number/cell
  Rate of neurite propagation (%): 51.0%
  Total number of cells: 308
[1]; 24 hrs, 10 μg/ml
  Length of neurite ± S.E.: 114.9 ± 5.98 μm/cell
  Number of neurite propagated cells: 205
  Number of neurites ± S.E.: 1.4 ± 0.06 number/cell
  Rate of neurite propagation (%): 63.9%
  Total number of cells: 321
[1]; 48 hrs, 10 ng/ml
  Length of neurite ± S.E.: 100.4 ± 5.76 μm/cell
  Number of neurite propagated cells: 158
  Number of neurites ± S.E.: 1.5 ± 0.06 number/cell
  Rate of neurite propagation (%): 42.6%
  Total number of cells: 371
[1]; 48 hrs, 100 ng/ml
  Length of neurite ± S.E.: 90.4 ± 6.06 μm/cell
  Number of neurite propagated cells: 153
  Number of neurites ± S.E.: 1.2 ± 0.04 number/cell
  Rate of neurite propagation (%): 44.1%
  Total number of cells: 347
[1]; 48 hrs, 1 μg/ml
  Length of neurite ± S.E.: 106.5 ± 6.40 μm/cell
  Number of neurite propagated cells: 182
  Number of neurites ± S.E.: 1.3 ± 0.04 number/cell
  Rate of neurite propagation (%): 47.4%
  Total number of cells: 384
[1]; 48 hrs, 10 μg/ml
  Length of neurite ± S.E.: 122.5 ± 6.99 μm/cell
  Number of neurite propagated cells: 214
  Number of neurites ± S.E.: 1.3 ± 0.04 number/cell
  Rate of neurite propagation (%): 61.8%
  Total number of cells: 346

## Gal (beta 1-3) GalNac (beta 1-4 ) <NAcNeu-(alpha2-3)>Gal (beta 1-4) Glc (beta 1-1)-Ceramide [GM1]
[1]
  activity (in words): do not provide any activity
  minimal effective concentration: 10 micro g/ml
[1]; 24 hrs, 10 ng/ml
  Length of neurite ± S.E.: 94.9 ± 6.64 μm/cell
  Number of neurite propagated cells: 145
  Number of neurites ± S.E.: 1.4 ± 0.05 number/cell
  Rate of neurite propagation (%): 43.4%
  Total number of cells: 334
[1]; 24 hrs, 100 ng/ml
  Length of neurite ± S.E.: 101.1 ± 5.09 μm/cell
  Number of neurite propagated cells: 142
  Number of neurites ± S.E.: 1.4 ± 0.06 number/cell
  Rate of neurite propagation (%): 47.8%
  Total number of cells: 297
[1]; 24 hrs, 1 μg/ml
  Length of neurite ± S.E.: 109.7 ± 6.44 μm/cell
  Number of neurite propagated cells: 140
  Number of neurites ± S.E.: 1.4 ± 0.06 number/cell
  Rate of neurite propagation (%): 42.2%
  Total number of cells: 332
[1]; 24 hrs, 10 μg/ml
  Length of neurite ± S.E.: 89.3 ± 4.77 μm/cell
  Number of neurite propagated cells: 149
  Number of neurites ± S.E.: 1.4 ± 0.05 number/cell
  Rate of neurite propagation (%): 45.8%
  Total number of cells: 325
[1]; 24 hrs, 100 μg/ml
  Length of neurite ± S.E.: 90.5 ± 3.88 μm/cell
  Number of neurite propagated cells: 172
  Number of neurites ± S.E.: 1.8 ± 0.06 number/cell
  Rate of neurite propagation (%): 55.5%
  Total number of cells: 310
[1]; 48 hrs, 10 ng/ml
  Length of neurite ± S.E.: 93.7 ± 5.07 μm/cell
  Number of neurite propagated cells: 194
  Number of neurites ± S.E.: 1.4 ± 0.05 number/cell
  Rate of neurite propagation (%): 58.3%
  Total number of cells: 333
[1]; 48 hrs, 100 ng/ml
  Length of neurite ± S.E.: 108.8 ± 5.97 μm/cell
  Number of neurite propagated cells: 156
  Number of neurites ± S.E.: 1.4 ± 0.06 number/cell
  Rate of neurite propagation (%): 44.7%
  Total number of cells: 349
[1]; 48 hrs, 1 μg/ml
  Length of neurite ± S.E.: 109.2 ± 6.09 μm/cell
  Number of neurite propagated cells: 211
  Number of neurites ± S.E.: 1.3 ± 0.04 number/cell
  Rate of neurite propagation (%): 59.9%
  Total number of cells: 352
[1]; 48 hrs, 10 μg/ml
  Length of neurite ± S.E.: 113.8 ± 5.49 μm/cell
  Number of neurite propagated cells: 205
  Number of neurites ± S.E.: 1.3 ± 0.04 number/cell
  Rate of neurite propagation (%): 62.1%
  Total number of cells: 330
[1]; 48 hrs, 100 μg/ml
  Length of neurite ± S.E.: 98.9 ± 5.22 μm/cell
  Number of neurite propagated cells: 193
  Number of neurites ± S.E.: 1.5 number/cell
  Rate of neurite propagation (%): 60.9%
  Total number of cells: 317
